Organism: Rattus norvegicus
Assay: DrugMatrix - Regimen: Daily Repeat
Format: toxicity, organism-based, Sprague-Dawley
Design: regimen Daily Repeat, gender Male, age 6-8 weeks
Conditions: in vivo, po, route oral GAVAGE, […]; for ABSOLUTE BASOPHIL / ABSOLUTE EOSINOPHIL / ABSOLUTE LYMPHOCYTE / ABSOLUTE MONOCYTE / ABSOLUTE SEGMENTED NEUTROPHIL / BASOPHIL / EOSINOPHIL / ERYTHROCYTE COUNT / HEMATOCRIT / HEMOGLOBIN / LEUKOCYTE COUNT / LYMPHOCYTE / MEAN CORPUSCULAR HEMOGLOBIN / MEAN CORPUSCULAR HEMOGLOBIN CONCENTRATION / MEAN CORPUSCULAR VOLUME / MONOCYTE / NEUTROPHIL / NUCLEATED RED BLOOD CELLS / PLATELET COUNT: tissue Blood; for ALANINE AMINOTRANSFERASE / ALBUMIN / ALKALINE PHOSPHATASE / ASPARTATE AMINOTRANSFERASE / BLOOD UREA NITROGEN / CARBON DIOXIDE / CHLORIDE / CHOLESTEROL / CREATINE PHOSPHOKINASE / CREATININE / GLUCOSE / LACTATE DEHYDROGENASE / LIPASE / PHOSPHORUS / POTASSIUM / SODIUM / TOTAL BILIRUBIN / TOTAL PROTEIN / URIC ACID: tissue Plasma
[1] = 24 mg/kg, 72 h, dose level Low, time 3 day
[2] = 24 mg/kg, 120 h, dose level Low, time 5 day
[3] = 93 mg/kg, 72 h, dose level High, time 3 day
[4] = 93 mg/kg, 120 h, dose level High, time 5 day

SMILES: Cc1cccc(Nc2ccccc2C(=O)O)c1C [MEFENAMIC ACID]
- ABSOLUTE BASOPHIL [1]: 0 CELLS/uL
- ABSOLUTE EOSINOPHIL [1]: 120.67 CELLS/uL
- ABSOLUTE LYMPHOCYTE [1]: 16868.33 CELLS/uL
- ABSOLUTE MONOCYTE [1]: 133 CELLS/uL
- ABSOLUTE SEGMENTED NEUTROPHIL [1]: 1478 CELLS/uL
- BASOPHIL [1]: 0%
- EOSINOPHIL [1]: 0.67%
- ERYTHROCYTE COUNT [1]: 5.76 x10E6/uL
- HEMATOCRIT [1]: 38.77%
- HEMOGLOBIN [1]: 15.4 G/DL
- LEUKOCYTE COUNT [1]: 18.6 x10E3/uL
- LYMPHOCYTE [1]: 90.67%
- MEAN CORPUSCULAR HEMOGLOBIN [1]: 26.73 pg
- MEAN CORPUSCULAR HEMOGLOBIN CONCENTRATION [1]: 39.73 G/DL
- MEAN CORPUSCULAR VOLUME [1]: 67.37 fL
- MONOCYTE [1]: 0.67%
- NEUTROPHIL [1]: 8%
- NUCLEATED RED BLOOD CELLS [1]: 0 /100WBC
- PLATELET COUNT [1]: 1314.33 x10E3/uL
- ALANINE AMINOTRANSFERASE [1]: 80.67 u/L
- ALBUMIN [1]: 4.33 G/DL
- ALKALINE PHOSPHATASE [1]: 454.67 u/L
- ASPARTATE AMINOTRANSFERASE [1]: 99.67 u/L
- BLOOD UREA NITROGEN [1]: 12 mg/dL
- CARBON DIOXIDE [1]: 32 mmol/L
- CHLORIDE [1]: 102.33 MEQ/L
- CHOLESTEROL [1]: 71 mg/dL
- CREATINE PHOSPHOKINASE [1]: 725 u/L
- CREATININE [1]: 0.28 mg/dL
- GLUCOSE [1]: 165.67 mg/dL
- LACTATE DEHYDROGENASE [1]: 174.67 u/L
- LIPASE [1]: 13 u/L
- PHOSPHORUS [1]: 13.37 mg/dL
- POTASSIUM [1]: 6.54 MEQ/L
- SODIUM [1]: 146.73 MEQ/L
- TOTAL BILIRUBIN [1]: 0.2 mg/dL
- TOTAL PROTEIN [1]: 6 G/DL
- URIC ACID [1]: 1.83 mg/dL
- ABSOLUTE BASOPHIL [2]: 0 CELLS/uL
- ABSOLUTE EOSINOPHIL [2]: 0 CELLS/uL
- ABSOLUTE LYMPHOCYTE [2]: 17204 CELLS/uL
- ABSOLUTE MONOCYTE [2]: 113.33 CELLS/uL
- ABSOLUTE SEGMENTED NEUTROPHIL [2]: 1482.67 CELLS/uL
- BASOPHIL [2]: 0%
- EOSINOPHIL [2]: 0%
- ERYTHROCYTE COUNT [2]: 5.87 x10E6/uL
- HEMATOCRIT [2]: 36.9%
- HEMOGLOBIN [2]: 14.47 G/DL
- LEUKOCYTE COUNT [2]: 18.8 x10E3/uL
- LYMPHOCYTE [2]: 91.33%
- MEAN CORPUSCULAR HEMOGLOBIN [2]: 24.67 pg
- MEAN CORPUSCULAR HEMOGLOBIN CONCENTRATION [2]: 39.23 G/DL
- MEAN CORPUSCULAR VOLUME [2]: 62.87 fL
- MONOCYTE [2]: 0.67%
- NEUTROPHIL [2]: 8%
- NUCLEATED RED BLOOD CELLS [2]: 0.33 /100WBC
- PLATELET COUNT [2]: 1359 x10E3/uL
- ALANINE AMINOTRANSFERASE [2]: 61.67 u/L
- ALBUMIN [2]: 4.17 G/DL
- ALKALINE PHOSPHATASE [2]: 457.33 u/L
- ASPARTATE AMINOTRANSFERASE [2]: 87.33 u/L
- BLOOD UREA NITROGEN [2]: 13.33 mg/dL
- CARBON DIOXIDE [2]: 31.33 mmol/L
- CHLORIDE [2]: 101.67 MEQ/L
- CHOLESTEROL [2]: 67.67 mg/dL
- CREATINE PHOSPHOKINASE [2]: 379.33 u/L
- CREATININE [2]: 0.19 mg/dL
- GLUCOSE [2]: 144.67 mg/dL
- LACTATE DEHYDROGENASE [2]: 449.33 u/L
- LIPASE [2]: 11.33 u/L
- PHOSPHORUS [2]: 11.87 mg/dL
- POTASSIUM [2]: 6.54 MEQ/L
- SODIUM [2]: 145.2 MEQ/L
- TOTAL BILIRUBIN [2]: 0.2 mg/dL
- TOTAL PROTEIN [2]: 5.97 G/DL
- URIC ACID [2]: 1.43 mg/dL
- ABSOLUTE BASOPHIL [3]: 0 CELLS/uL
- ABSOLUTE EOSINOPHIL [3]: 46.33 CELLS/uL
- ABSOLUTE LYMPHOCYTE [3]: 12604 CELLS/uL
- ABSOLUTE MONOCYTE [3]: 348.67 CELLS/uL
- ABSOLUTE SEGMENTED NEUTROPHIL [3]: 1701 CELLS/uL
- BASOPHIL [3]: 0%
- EOSINOPHIL [3]: 0.33%
- ERYTHROCYTE COUNT [3]: 5.47 x10E6/uL
- HEMATOCRIT [3]: 35.43%
- HEMOGLOBIN [3]: 13.77 G/DL
- LEUKOCYTE COUNT [3]: 14.7 x10E3/uL
- LYMPHOCYTE [3]: 85.67%
- MEAN CORPUSCULAR HEMOGLOBIN [3]: 25.17 pg
- MEAN CORPUSCULAR HEMOGLOBIN CONCENTRATION [3]: 38.9 G/DL
- MEAN CORPUSCULAR VOLUME [3]: 64.77 fL
- MONOCYTE [3]: 2.33%
- NEUTROPHIL [3]: 11.67%
- NUCLEATED RED BLOOD CELLS [3]: 0.33 /100WBC
- PLATELET COUNT [3]: 1191.33 x10E3/uL
- ALANINE AMINOTRANSFERASE [3]: 64.33 u/L
- ALBUMIN [3]: 3.93 G/DL
- ALKALINE PHOSPHATASE [3]: 288.33 u/L
- ASPARTATE AMINOTRANSFERASE [3]: 83 u/L
- BLOOD UREA NITROGEN [3]: 11 mg/dL
- CARBON DIOXIDE [3]: 34 mmol/L
- CHLORIDE [3]: 101.67 MEQ/L
- CHOLESTEROL [3]: 82 mg/dL
- CREATINE PHOSPHOKINASE [3]: 546.33 u/L
- CREATININE [3]: 0.16 mg/dL
- GLUCOSE [3]: 149 mg/dL
- LACTATE DEHYDROGENASE [3]: 123 u/L
- LIPASE [3]: 11 u/L
- PHOSPHORUS [3]: 12.4 mg/dL
- POTASSIUM [3]: 6.65 MEQ/L
- SODIUM [3]: 145.07 MEQ/L
- TOTAL BILIRUBIN [3]: 0.17 mg/dL
- TOTAL PROTEIN [3]: 5.63 G/DL
- URIC ACID [3]: 1.57 mg/dL
- ABSOLUTE BASOPHIL [4]: 0 CELLS/uL
- ABSOLUTE EOSINOPHIL [4]: 0 CELLS/uL
- ABSOLUTE LYMPHOCYTE [4]: 16873.67 CELLS/uL
- ABSOLUTE MONOCYTE [4]: 0 CELLS/uL
- ABSOLUTE SEGMENTED NEUTROPHIL [4]: 1459.67 CELLS/uL
- BASOPHIL [4]: 0%
- EOSINOPHIL [4]: 0%
- ERYTHROCYTE COUNT [4]: 5.73 x10E6/uL
- HEMATOCRIT [4]: 35.9%
- HEMOGLOBIN [4]: 14.23 G/DL
- LEUKOCYTE COUNT [4]: 18.33 x10E3/uL
- LYMPHOCYTE [4]: 92%
- MEAN CORPUSCULAR HEMOGLOBIN [4]: 24.87 pg
- MEAN CORPUSCULAR HEMOGLOBIN CONCENTRATION [4]: 39.63 G/DL
- MEAN CORPUSCULAR VOLUME [4]: 62.73 fL
- MONOCYTE [4]: 0%
- NEUTROPHIL [4]: 8%
- NUCLEATED RED BLOOD CELLS [4]: 0.33 /100WBC
- PLATELET COUNT [4]: 1419 x10E3/uL
- ALANINE AMINOTRANSFERASE [4]: 66.67 u/L
- ALBUMIN [4]: 4.3 G/DL
- ALKALINE PHOSPHATASE [4]: 382.67 u/L
- ASPARTATE AMINOTRANSFERASE [4]: 85 u/L
- BLOOD UREA NITROGEN [4]: 11.67 mg/dL
- CARBON DIOXIDE [4]: 31.67 mmol/L
- CHLORIDE [4]: 101.33 MEQ/L
- CHOLESTEROL [4]: 76.67 mg/dL
- CREATINE PHOSPHOKINASE [4]: 196.33 u/L
- CREATININE [4]: 0.14 mg/dL
- GLUCOSE [4]: 143 mg/dL
- LACTATE DEHYDROGENASE [4]: 166.33 u/L
- LIPASE [4]: 11.33 u/L
- PHOSPHORUS [4]: 12.5 mg/dL
- POTASSIUM [4]: 6.98 MEQ/L
- SODIUM [4]: 144.2 MEQ/L
- TOTAL BILIRUBIN [4]: 0.17 mg/dL
- TOTAL PROTEIN [4]: 6.23 G/DL
- URIC ACID [4]: 2.33 mg/dL

— ChEMBL document CHEMBL3885881, “DrugMatrix”
